Several values for one entry are separate records, joined by “and”; a condition that tells them apart may be missing. Identical values can stand only once.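 Five concentrations, 48 hours, 96-well plates. Here, GI50 denotes the concentration required for 50% inhibition of growth. At the TGI there is no net growth.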
Experiments:
Test in all cases: inhibition of tumour cell growth, NCI panel, 48 h
SW-620 colon = test system: SW-620 colon
MOLT-4 leukemia = test system: MOLT-4 leukemia
COLO 205 colon = test system: COLO 205 colon
SN12C renal = test system: SN12C renal
DU-145 prostate = test system: DU-145 prostate
M14 melanoma = test system: M14 melanoma
SNB-19 CNS = test system: SNB-19 CNS
SK-MEL-5 melanoma = test system: SK-MEL-5 melanoma
SK-MEL-28 melanoma = test system: SK-MEL-28 melanoma
BT-549 breast = test system: BT-549 breast
HCT-15 colon = test system: HCT-15 colon

Structure (SMILES) | TGI (SW-620 colon) [µM] | TGI (MOLT-4 leukemia) [µM] | TGI (COLO 205 colon) | TGI (SN12C renal) [µM] | TGI (DU-145 prostate) [µM] | TGI (M14 melanoma) [µM] | TGI (SNB-19 CNS) [µM] | TGI (SK-MEL-5 melanoma) [µM] | TGI (SK-MEL-28 melanoma) [µM] | TGI (BT-549 breast) | TGI (HCT-15 colon) [µM] | GI50 (DU-145 prostate) [nM] | GI50 (BT-549 breast) | GI50 (SW-620 colon) [nM] | GI50 (MOLT-4 leukemia) [nM] | GI50 (SN12C renal) [nM] | GI50 (SK-MEL-5 melanoma) [nM] | GI50 (SK-MEL-28 melanoma) [nM] | GI50 (HCT-15 colon) [nM]
CC(C)=CCC/C(C)=C/Cc1cc(/C=C/c2cc(O)c(CC=C(C)C)c(O)c2)cc(O)c1O | 14.5 | 11.8 | 33.4 µM | 3.95 | 26.6 | 16 | 16.6 | 5.88 | 17.5 | 13.3 µM | 11.9 | – | – | – | – | – | – | – | –
CSc1nc(=S)[nH]c2n[nH]c(C)c12 | > 100 | > 100 | > 100 µM | > 100 | > 100 | > 100 | > 100 | > 100 | > 100 | > 100 µM | > 100 | – | – | – | – | – | – | – | –
N[C@@H]1C[C@H](N)c2c(Cl)sc(Cl)c21 | > 100 | > 100 | > 100 µM | > 100 | > 100 | > 100 | > 100 | > 100 | > 100 | > 100 µM | > 100 | – | – | – | – | – | – | – | –
NN/C(=N\S(=O)(=O)c1cc(Cl)c(Oc2ccc([N+](=O)[O-])cc2Cl)c(Cl)c1)Nc1ccc(Cl)cc1 | > 100 | 85.8 | 29 µM | 33.2 | 38.4 | 31.2 | 62.4 | 29.4 | 48.3 | 40.9 µM | 41.7 | – | – | – | – | – | – | – | –
CCC(=O)N(c1ccccc1)C(C)CN1CCC(O)(c2ccccc2)CC1 (configuration not stated) | – | > 100 | > 100 µM | > 100 | > 100 | > 100 | > 100 | > 100 | > 100 | > 100 µM | > 100 | – | – | – | – | – | – | – | –
CCOC(=O)CCc1c(C(=O)OCC)[nH]c(/C=C2/NC(=O)C(C)=C2CC)c1C | > 100 | 13.1 | 33.2 µM | 37.9 | 44.6 | 20.8 | 37.2 | 13.2 | 30.2 | 6.19 µM | 15.3 | – | – | – | – | – | – | – | –
O=c1cc(-c2ccc(O)c(O)c2)oc2cc(OC3OC(CO)C(O)C(O)C3O)cc(O)c12 (configuration not stated) | > 100 | > 100 | > 100 µM | > 100 | > 100 | > 100 | > 100 | > 100 | > 100 | > 100 µM | > 100 | – | – | – | – | – | – | – | –
Cc1sc2ncnc(NCCc3ccccc3)c2c1C | > 100 | 63.8 | 24.4 µM | 28.3 | 70.9 | 41.3 | > 100 | 12.2 | 35 | 62.9 µM | 87.7 | – | – | – | – | – | – | – | –
CN(C)c1ccc(C2CC(=O)CC(c3ccc(N(C)C)cc3)C23C(=O)NC(=O)NC3=O)cc1 (configuration not stated) | > 25 | > 25 | > 25 µM | > 25 | > 25 | > 25 | > 25 | > 25 | > 25 | > 25 µM | > 25 | – | – | – | – | – | – | – | –
COC(=O)n1c(=O)nc2c3c(ncn21)Oc1c(c(-c2ccccc2)nn1-c1ccccc1)C3c1ccc(Cl)cc1 (configuration not stated) | 3.06 | – | 2.76 µM | 3.1 | 2.98 | 2.75 | 3.13 | 3.16 | 3.18 | 17.7 µM | 2.95 | – | – | – | – | – | – | – | –
CN(C)c1ccc(C(C#N)N2CCCN(C(C#N)c3ccc(N(C)C)cc3)C2c2ccc(N(C)C)cc2)cc1 (configuration not stated) | > 100 | > 100 | > 100 µM | > 100 | > 100 | > 100 | > 100 | > 100 | > 100 | > 100 µM | > 100 | – | – | – | – | – | – | – | –
O=C(CNC(=O)OCc1ccccc1)NCCCCC(NC(=O)OCc1ccccc1)C(=O)O (configuration not stated) | > 100 | > 100 | > 100 µM | > 100 | > 100 | > 100 | > 100 | > 100 | > 100 | > 100 µM | > 100 | – | – | – | – | – | – | – | –
CCOc1ccc(C2c3[nH]c4ccccc4c3CCN2C(=O)c2cccs2)cc1 (configuration not stated) | > 100 | > 100 | > 100 µM | > 100 | > 100 | > 100 | > 100 | > 100 | > 100 | > 100 µM | > 100 | – | – | – | – | – | – | – | –
CN1CC=C(OP(=O)(NCc2ccccc2)N(CCCl)CCCl)CC1 (configuration not stated) | > 100 | > 100 | > 100 µM | > 100 | > 100 | > 100 | > 100 | – | > 100 | > 100 µM | > 100 | – | – | – | – | – | – | – | –
COC(=O)/C=C/c1cc(OC)c2c(c1)C(C(=O)OC)C(c1ccc(OC)c(OC)c1)O2 (configuration not stated) | > 100 | > 100 | > 100 µM and 17.6 µM | > 100 | > 100 | > 100 | > 100 | > 100 | > 100 | 99.6 µM and > 100 µM | > 100 | > 100000 | 29 µM and 6.01 µM | – | – | – | – | – | –
CSc1nc(C)cc(Nc2ccc(O)c(CN3CCCCC3)c2)n1 | > 100 | > 100 | > 100 µM | > 100 | > 100 | 31.8 | > 100 | > 100 | 79.6 | > 100 µM | > 100 | – | – | – | – | – | – | – | –
O=C(/C=C/c1ccc(O)c(O)c1)NC(CO)C(=O)O (configuration not stated) | > 100 | > 100 | > 100 µM | > 100 | > 100 | > 100 | > 100 | > 100 | > 100 | > 100 µM | > 100 | – | – | – | – | – | – | – | –
Clc1cc(Cl)cc(N2N=C(c3cccc(Nc4ccncc4)c3)CC2c2ccccc2)c1 (configuration not stated) | 3.73 | 5.95 | – | 3.12 | 6.51 | – | – | 3.23 | 3.21 | 28.4 µM | 3.31 | 2540 | 6.23 µM | 1850 | 2290 | 1660 | 1780 | 1760 | 1660
CCn1c(=O)c2c(=O)[nH][nH]c2c2ccccc21 | > 100 | > 100 | > 100 µM | > 100 | > 100 | – | > 100 | > 100 | > 100 | > 100 µM | > 100 | – | – | – | – | – | – | – | –

— PubChem BioAssay (NCI)
